Columns and labels:
Assay type in all cases: in vivo
[1] = system: upland rice (Oryza sp., var. Tebonnet, RICE); assay: Post-emerge test, crop safety; details: post-emerge, 14 days after application, rating scale 0-100
Procedure, shortened: (§1)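 Applied at 15–1000 g ai/ha from acetone in 187 l/ha spray volume. Post-emergence applications included 0.25% v/v non-ionic surfactant and reached plants sown 8–21 days before. Pre-emergence applications were incorporated by surface watering. Efficacy or crop damage was rated on a 0–100 scale after 14 days.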

[2] = system: field corn (Zea mays L., var. Dekalb 535, CORN); assay: Post-emerge test, crop safety; details: post-emerge, 14 days after application, rating scale 0-100
Procedure, shortened: as §1

[3] = system: ivyleaf morningglory (Ipomoea hederacea, IPOHE); assay: Post-emerge test, greenhouse herbicide activity screening; details: post-emerge, 14 days after application, rating scale 0-100
Procedure, shortened: as §1

[4] = system: velvetleaf (Abutilon theophrasti, ABUTH); assay: as above; details: post-emerge, 14 days after application, rating scale 0-100
Procedure, shortened: as §1

[5] = system: barnyardgrass (Echinochloa crus-galli, ECHCG); assay: as above; details: post-emerge, 14 days after application, rating scale 0-100
Procedure, shortened: as §1

[6] = system: large crabgrass (Digitaria sanguinalis, DIGSA); assay: as above; details: post-emerge, 14 days after application, rating scale 0-100
Procedure, shortened: as §1

[7] = system: common ragweed (Ambrosia artemisizfolia L., AMBEL); assay: as above; details: post-emerge, 14 days after application, rating scale 0-100
Procedure, shortened: as §1

[8] = system: johnsongrass (Sorghum halepense, SORHA); assay: as above; details: post-emerge, 14 days after application, rating scale 0-100
Procedure, shortened: as §1

[9] = system: green foxtail (Setaria viridis, SETVI); assay: as above; details: post-emerge, 14 days after application, rating scale 0-100
Procedure, shortened: as §1

[10] = system: redroot pigweed (Amaranthus retroflexus, AMARE); assay: as above; details: post-emerge, 14 days after application
Procedure, shortened: as §1

[11] = system: lambsquarters (Chenopodium album, CHEAL); assay: as above; details: post-emerge, 14 days after application, rating scale 0-100
Procedure, shortened: as §1

[12] = system: sicklepod (Cassia obtusifolia, CASOB); assay: as above; details: post-emerge, 63 g ai/ha, 14 days after application, rating scale 0-100
Procedure, shortened: as §1

[13] = system: redroot pigweed (Amaranthus retroflexus, AMARE); assay: Pre-emerge test, greenhouse herbicide activity screening; details: phytotoxicity rating 0-100, 14 days after application
Procedure, shortened: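 Compounds in acetone were track-sprayed at 187 l/ha, 15–1000 g ai/ha, onto sandy loam pots. Pre-emerge seeds were sown one day before spraying, with surface watering afterwards. Post-emerge plants were at the 2–3 leaf stage and sprayed with 0.25% v/v non-ionic surfactant. Injury was rated 0–100 at 14 days.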

[14] = system: ivyleaf morningglory (Ipomoea hederacea, IPOHE); assay: as above; details: phytotoxicity rating 0-100, 14 days after application
Procedure, shortened: as §1

[15] = system: velvetleaf (Abutilon theophrasti, ABUTH); assay: as above; details: phytotoxicity rating 0-100, 14 days after application
Procedure, shortened: as §1

[16] = system: barnyardgrass (Echinochloa crus-galli, ECHCG); assay: as above; details: phytotoxicity rating 0-100, 14 days after application
Procedure, shortened: as §1

[17] = system: large crabgrass (Digitaria sanguinalis, DIGSA); assay: as above; details: phytotoxicity rating 0-100, 14 days after application
Procedure, shortened: as §1

[18] = system: common ragweed (Ambrosia artemisizfolia L., AMBEL); assay: as above; details: phytotoxicity rating 0-100, 14 days after application
Procedure, shortened: as §1

[19] = system: johnsongrass (Sorghum halepense, SORHA); assay: as above; details: phytotoxicity rating 0-100, 14 days after application
Procedure, shortened: as §1

[20] = system: green foxtail (Setaria viridis, SETVI); assay: as above; details: phytotoxicity rating 0-100, 14 days after application
Procedure, shortened: as §1

[21] = system: lambsquarters (Chenopodium album, CHEAL); assay: as above; details: phytotoxicity rating 0-100, 14 days after application
Procedure, shortened: as §1

[22] = system: sicklepod (Cassia obtusifolia, CASOB); assay: as above; details: phytotoxicity rating 0-100, 14 days after application
Procedure, shortened: as §1

[23] = system: upland rice (Oryza sp., var. Tebonnet, RICE); assay: Pre-emerge test, crop safety; details: crop damage rating 0-100, 14 days after application
Procedure, shortened: (§2)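 Fourteen days after spraying, crop and weed injury was graded visually from 0, no effect, to 100, every plant dead. Test substances were dissolved in acetone and applied at 15–1000 g ai/ha with a flat-fan nozzle. Application was either pre-emergence, one day after sowing, or post-emergence at the 2–3 leaf stage.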

[24] = system: field corn (Zea mays L., var. Dekalb 535, CORN); assay: Pre-emerge test, crop safety; details: crop damage rating 0-100, 14 days after application
Procedure, shortened: as §2

Cn1c(C(F)(F)F)cc(=O)n(-c2ccc(Cl)cc2NC(=O)C2CC2)c1=O [2-204]
phytotoxicity rating RICE (crop damage) ([1]; 63 g ai/ha): 0
phytotoxicity rating RICE (crop damage) ([1]; 250 g ai/ha): 30
phytotoxicity rating CORN (crop damage) ([2]; 63 g ai/ha): 5
phytotoxicity rating CORN (crop damage) ([2]; 250 g ai/ha): 10
phytotoxicity rating IPOHE ([3]; 63 g ai/ha): 30
phytotoxicity rating IPOHE ([3]; 250 g ai/ha): 60
phytotoxicity rating ABUTH ([4]; 63 g ai/ha): 40
phytotoxicity rating ABUTH ([4]; 250 g ai/ha): 80
phytotoxicity rating ECHCG ([5]; 63 g ai/ha): 0
phytotoxicity rating ECHCG ([5]; 250 g ai/ha): 0
phytotoxicity rating DIGSA ([6]; 63 g ai/ha): 0
phytotoxicity rating DIGSA ([6]; 250 g ai/ha): 10
phytotoxicity rating AMBEL ([7]; 63 g ai/ha): 10
phytotoxicity rating AMBEL ([7]; 250 g ai/ha): 70
phytotoxicity rating SORHA ([8]; 63 g ai/ha): 0
phytotoxicity rating SORHA ([8]; 250 g ai/ha): 0
phytotoxicity rating SETVI ([9]; 63 g ai/ha): 0
phytotoxicity rating SETVI ([9]; 250 g ai/ha): 20
phytotoxicity rating AMARE ([10]; 63 g ai/ha, rating scale 0-100 (0 no damage, 100 complete death)): 50
phytotoxicity rating AMARE ([10]; 250 g ai/ha, rating scale 0-100): 70
phytotoxicity rating CHEAL ([11]; 63 g ai/ha): 20
phytotoxicity rating CHEAL ([11]; 250 g ai/ha): 95
phytotoxicity rating CASOB [12]: 10
Pre-emerge Herbicidal Activity AMARE ([13]; 63 g ai/ha): 100
Pre-emerge Herbicidal Activity AMARE ([13]; 250 g ai/ha): 100
Pre-emerge Herbicidal Activity IPOHE ([14]; 63 g ai/ha): 50
Pre-emerge Herbicidal Activity IPOHE ([14]; 250 g ai/ha): 100
Pre-emerge Herbicidal Activity ABUTH ([15]; 63 g ai/ha): 99
Pre-emerge Herbicidal Activity ABUTH ([15]; 250 g ai/ha): 100
Pre-emerge Herbicidal Activity ECHCG ([16]; 63 g ai/ha): 20
Pre-emerge Herbicidal Activity ECHCG ([16]; 250 g ai/ha): 70
Pre-emerge Herbicidal Activity DIGSA ([17]; 63 g ai/ha): 35
Pre-emerge Herbicidal Activity DIGSA ([17]; 250 g ai/ha): 100
Pre-emerge Herbicidal Activity AMBEL ([18]; 63 g ai/ha): 50
Pre-emerge Herbicidal Activity AMBEL ([18]; 250 g ai/ha): 85
Pre-emerge Herbicidal Activity SORHA ([19]; 63 g ai/ha): 40
Pre-emerge Herbicidal Activity SORHA ([19]; 250 g ai/ha): 80
Pre-emerge Herbicidal Activity SETVI ([20]; 63 g ai/ha): 95
Pre-emerge Herbicidal Activity SETVI ([20]; 250 g ai/ha): 99
Pre-emerge Herbicidal Activity CHEAL ([21]; 63 g ai/ha): 70
Pre-emerge Herbicidal Activity CHEAL ([21]; 250 g ai/ha): 100
Pre-emerge Herbicidal Activity CASOB ([22]; 63 g ai/ha): 60
Pre-emerge Herbicidal Activity CASOB ([22]; 250 g ai/ha): 75
Pre-emerge Herbicidal Activity RICE ([23]; 63 g ai/ha): 0
Pre-emerge Herbicidal Activity RICE ([23]; 250 g ai/ha): 30
Pre-emerge Herbicidal Activity CORN ([24]; 63 g ai/ha): 50
Pre-emerge Herbicidal Activity CORN ([24]; 250 g ai/ha): 70

From US6355799B1, “Substituted benzene compounds, process for their preparation, and herbicidal and defoliant compositions containing them” (ISK Americas Incorporated, priority 1997, dated 2002)
